Tested on: S6K
Test: Western blotting, S6K phosphorylation ratio (mTORC1 pathway)
Format: cell-based, human
Conditions: vs MSC control exposed to TNF-α/IFN-γ; FIG. 4D
Protocol: Further, the phosphorylation-induced activation ratios of AKT/mTOR/S6K, which represents the mTORC1 pathway, was analyzed. mTORC1 activation is known to not only induce senescence-associated phenotypes in MSCs, but also impair quiescence and sternness. In the present experiment, the phosphorylation ratio was confirmed using western blotting analysis as described below.
Proteins were extracted with a Pro-Prep protein lysis buffer (iNtRON) and quantified by a protein quantitative analysis kit (BIOMAX, Seoul, Korea). Samples were then heated in 4× Laemmli sample buffer (Bio-Rad) containing 2-mercaptoethanol (Bio-Rad), and proteins were loaded onto an 8% sodium dodecyl sulfate polyacrylamide gel and electrophoresed at 60 V for 30 minutes, and then electrophoresed at 120 V for 1 hour. […]
Immunoreactive bands were detected using an enhanced chemiluminescence detection reagent (Clarity™ Western blot substrate, Bio-Rad) and images of the bands were obtained using ImageSaver Version 6 (ATTO, Tokyo, Japan). The intensity of each band was analyzed with CA4 analyzer software (ATTO), and each experiment was performed in triplicate under the same conditions. […]

## O=S1(=O)CCN(Cc2cc(NC3CCOCC3)c3[nH]c(-c4ccccc4)cc3c2)CC1 [example compound, 5-[(1,1-dioxido-4-thiomorpholinyl)methyl]-2-phenyl-N-(tetrahydro-2H-pyran-4-yl)-1H-indole-7-amine]
  reduction of S6K phosphorylation ratio (pS6K/S6K): ~40%
